Test results reported in patent publication US20240109852A1, “Ferroptosis-HDAC Inhibitor Hybrid Anticancer Agents” (The University of Toledo, priority 2022, published 2024).
Read-outs that look alike come from different tables or passages of the source. One block for each compound: values may come before it.

Legend:
[1] = system: NCI-60 human tumor cell lines; test: NCI-60 one dose assay, whole panel; assay type: cell-based; conditions: compared to other hybrids, HDAC controls and SAHA
[2] = system: SH-SY5Y cell line (human neuroblastoma); test: MTT cell viability assay on SH-SY5Y neuronal cells; assay type: cell-based; conditions: for effect on neuronal cells (neurotoxicity), SH-SY5Y viability: 0.5×IC50, 1×IC50, 2×IC50 of the corresponding control on H522
Procedure: Human neuroblastoma cells (SH-SY5Y) were grown on poly-D-lysine coated plates and cultured in DMEM/F12 medium (HyClone, Thermo Scientific) containing 10% fetal bovine serum and 1% penicillin-streptomycin. Cells were maintained in a 37° C. incubator with a 5% CO2 atmosphere. Cells were seeded at a density of 15,000 cells in 96 well plates for 36 hr before treatment of drugs. […] G4102) according to the manufacturer's instructions. Cells were treated with amide series analogs for 24 hrs. Briefly, the cells were incubated with MTT reagent for 2 h at 37° C. incubator. Then, the solubilization/stop solution was added to solubilize the formazan products, incubated for 1 hr, and absorbance at 570 was measured using micro-plate reader (SynergyH1, BioTek, USA). DMSO was used a vehicle control. The experimental data represent the means±SD (*P<0.05) of triplicates from three separate experiments. The statistical significance was determined by one-way ANOVA and significant differences P<0.05, P<0.01, P<0.001, and P<0.0001 are symbolized as *, **, ***, and ****, respectively.

[3] = system: NCI-60 human tumor cell lines; test: NCI-60 five dose assay, whole panel; assay type: cell-based
[4] = system: HCT116 human colorectal carcinoma cells; test: Cell viability assay (methylene blue staining), HCT-116; assay type: cell-based; conditions: HCT-116, 72 h, read-out: IC50 ± SD (n = 3) on HCT-116 cell line
Procedure: (§2) Cell viability was assessed using methylene blue staining: cells were plated at 5000/well in 96 well plates (n=3) respectively and treated the next day. Three days after treatment cells were fixed/stained in methylene blue saturated in 50% ethanol for 30 min at RT. Plates were washed with excess water to wash off extra dye.

[5] = system: NCI-H522 human lung cancer cells; test: Cell viability assay (methylene blue staining), NCI-H522; assay type: cell-based; conditions: NCI-H522, 72 h, read-out: IC50 ± SD (n = 3) on NCI-H522 cell line
Procedure: as §2

[6] = system: PC-12 (pheochromocytoma) cells; test: MTT cytotoxicity on undifferentiated and differentiated PC-12 cells; assay type: cell-based; conditions: both non-differentiated and NGF-differentiated states
Procedure: Pheochromocytoma (PC-12) cells were grown on poly-D-lysine coated plates and cultured in DMEM/F12 medium (HyClone, Thermo Scientific) containing 5% fetal bovine serum, 5% horse serum, and 1% penicillin-streptomycin. Cells were maintained in a 37° C. incubator with a 5% CO2 atmosphere. Cells were seeded at a density of 15,000 cells per well in 96 well plates for 36 hr before treatment with the test compounds. The MTT assay was performed after 24 hr of treatment.
Pheochromocytoma (PC-12) cells were seeded on poly-D-lysine coated plates containing neuron differentiation medium (100 ng nerve growth factor, DMEM/F12, 5% fetal bovine serum, 5% horse serum, and 1% penicillin-streptomycin) and grown for 5 days to differentiate to neurons. Cells were maintained in a 37° C. incubator with a 5% CO2 atmosphere. Cells were trypsinized, and seeded at a density of 15,000 cells/well in 96 well plates with neuron differentiation medium for 36 hr before treatment with the test compounds. The MTT assay was performed after 24 hr of treatment.

[7] = system: DU-145 (prostate cancer cell line); test: NCI-60 five dose assay, DU-145; assay type: cell-based; conditions: Homo sapiens
[8] = system: HS578 (breast cancer cell line); test: NCI-60 five dose assay, HS578; assay type: cell-based; conditions: Homo sapiens
[9] = system: SF-539 cell line (CNS cancer); test: NCI-60 five dose assay, SF-539; assay type: cell-based; conditions: Homo sapiens
[10] = system: LOXIMVI (melanoma cell line); test: NCI-60 five dose assay, LOXIMVI; assay type: cell-based; conditions: Homo sapiens, LOX IMVI, read-out: GI50, LOXIMVI
[11] = system: IGROV-1 (ovarian cancer cell line); test: NCI-60 five dose assay, IGROV-1; assay type: cell-based; conditions: Homo sapiens
[12] = system: NCI-H23 (NSC lung cancer cell line); test: NCI-60 five dose assay, NCI-H23; assay type: cell-based; conditions: Homo sapiens
[13] = system: NCI-H522 cells; test: Time-lapse microscopy of cell death in NCI-H522 cells; assay type: cell-based, human; conditions: for time from initiation of ferroptosis until most/all cells were dead: CETZOLE-1 20 μM (most cells), HY-1 5 μM (all cells); for time of initiation of ferroptosis after treatment: CETZOLE-1 20 μM, HY-1 5 μM
Procedure: For time lapse imaging, NCI-H522 cells were plated at ˜70% density and left overnight to adhere and pre-equilibrate to 10% CO2. The next day cells were treated with DMSO or inhibitors, and the flask was maintained sealed. Flasks were placed on a 37° C. heated stage on an inverted microscope. Images were captured every 12 min and for a total of 300 images using a ×40 microscope objective and an Olympus C740 digital camera controlled by AmScope software. Image analysis was done using Image J. For the Kaplan-Maier graphs at least 100 cells were counted and the event of cell death was measured on a time frame of either 1 h or 0.2 h.

[14] = system: PC-3 (prostate cancer cell line); test: NCI-60 five dose assay, PC-3; assay type: cell-based; conditions: Homo sapiens, read-out: GI50, PC-3
[15] = system: DU-145 cells (prostate cancer); conditions: one dose; SAHA data from the public data base of NCI; cited from earlier work
[16] = system: NCI-H23 cell line (NSC-Lung cancer); conditions: one dose; SAHA data from the public data base of NCI; cited from earlier work
[17] = system: lipid peroxides in NCI-H522 cells; test: C11-BODIPY lipid peroxidation assay (flow cytometry); assay type: cell-based, human; conditions: NCI-H522, 10 μM, within 6 hours of treatment
Procedure: NCI-H522 cells (˜70% density) were plated on 7 cm dishes and let overnight to adhere. […] After 6 h, cells were washed with 1×PBS and collected by trypsinization and centrifugation. The cells were washed once with 1×PBS and resuspended in PBS containing 2% FBS. Cells were analyzed using a BD LSR Fortessa FACScanner and FlowJo software. For each sample 20×10^3 cells were analyzed.

[18] = system: hTERT-immortalized RPE cells (retinal pigment epithelial cells); test: Cell viability assay (methylene blue staining), RPE normal cells; assay type: cell-based, human
Procedure: as §2

[19] = system: RPMI-8226 (leukemia cell line); test: NCI-60 five dose assay, RPMI-8226; assay type: cell-based; conditions: Homo sapiens, RPMI-8226, read-out: GI50, RPMI-8226
[20] = system: WI-38 cells (normal human lung fibroblasts); test: Cell viability assay (methylene blue staining), WI-38 normal cells; assay type: cell-based; conditions: concentration of therapeutic relevance (2 μM), mesenchymal system
Procedure: as §2

[21] = system: acetyl tubulin (class II, HDAC-6 substrate); test: Western blot, acetyl tubulin in NCI-H522 cells; assay type: cell-based, human; conditions: NCI-H522, concentration of 5 μM
Source text: (§1) Bound antibodies were detected using enhanced chemiluminescence (Biorad).

[22] = system: acetyl-H3 (K9) (histones, HDAC class I substrate); test: Western blot, acetyl-H3 (K9) in NCI-H522 cells; assay type: cell-based, human; conditions: NCI-H522, concentration of 5 μM
Source text: as §1

SMILES: C#Cc1nc(/C=C/C=C/C(=O)NO)cs1 [HY-4, (2E,4E)-5-(2-ethynylthiazol-4-yl)-N-hydroxypenta-2,4-dienamide]
- cytotoxicity profile in the NCI-60 screen [1]: worst cytotoxicity profile
- effect on neuronal cells (neurotoxicity), SH-SY5Y viability [2]: not showing attenuated neurotoxicity

SMILES: O=C(CCCCCCNC(=O)c1csc(Br)n1)NO [HC-1, 2-Bromo-N-(7-(hydroxyamino)-7-oxoheptyl)thiazole-4-carboxamide]
- effect on neuronal cells (neurotoxicity), SH-SY5Y viability [2]: very mild toxicity
- GI50 ([3]; read-out: average GI50): 1.51 µM

- IC50 [4]: 4.96 µM
- IC50 [5]: 1.59 µM
SMILES: C#Cc1nc(/C=C/CCCCCC(=O)NO)cs1 [HY-3, (E)-8-(2-ethynylthiazol-4-yl)-N-hydroxyoct-7-enamide]
- GI50 ([3]; read-out: average GI50): 3.39 µM

SMILES: C#Cc1nc(C(=O)NCCCCCCC(=O)OC)cs1 [FC-1, Methyl 7-(2-ethynylthiazole-4-carboxamido)heptanoate]
- sensitivity of differentiated and undifferentiated PC-12 cells [6]: resistant
- effect on neuronal cells (neurotoxicity), SH-SY5Y viability [2]: significant neurotoxicity

SMILES: O=C(CCCCCCC(=O)Nc1ccccc1)NO [SAHA]
- GI50 ([7]; DU-145, five dose assay, read-out: GI50, DU-145): 1.25 µM
- GI50 [8]: 2 µM
- GI50 ([9]; SF-539, five dose assay, read-out: GI50, SF-539): 2 µM
- GI50 ([10]; five dose assay): 1.25 µM
- GI50 ([11]; IGROV-1, five dose assay, read-out: GI50, IGROV-1): 2 µM
- GI50 ([12]; NCI-H23, five dose assay, read-out: GI50, NCI-H23): 2 µM
- time after treatment at which cells were still alive ([13]; SAHA 5 μM): ≥ 60 h
- GI50 ([14]; five dose assay): 1.58 µM
- GI50 ([3]; five dose assay, mean over approximately sixty cell lines, read-out: average GI50): 1.21 µM
- Growth %, DU-145 (NCI public data base) [15]: 3.5%
- Growth %, NCI-H23 (NCI public data base) [16]: 3.30%

SMILES: C#Cc1nc(C(=O)NCCCCCCC(=O)NO)cs1 [HY-1, 2-Ethynyl-N-(7-(hydroxyamino)-7-oxoheptyl)thiazole-4-carboxamide]
- lipid peroxide levels (oxidized C11-BODIPY 581/591) [17]: increased levels of lipid peroxides
- GI50 ([7]; DU-145, read-out: GI50, DU-145): 0.36 µM
- toxicity on normal cells (RPE) ([18]; concentration of therapeutic relevance (2 μM), epithelial system): no toxicity was observed on the normal cells
- GI50 ([9]; SF-539, read-out: GI50, SF-539): 1 µM
- GI50 [10]: 0.02 µM
- GI50 ([11]; IGROV-1, read-out: GI50, IGROV-1): 0.57 µM
- cytotoxicity profile in the NCI-60 screen [1]: best cytotoxicity profile
- sensitivity of differentiated and undifferentiated PC-12 cells [6]: behaved like the HDAC control HC-1
- GI50 ([12]; NCI-H23, read-out: GI50, NCI-H23): 0.78 µM
- GI50 [19]: 0.35 µM
- time from initiation of ferroptosis until most/all cells were dead [13]: ≤ 2 h
- time of initiation of ferroptosis after treatment [13]: 8 h
- neurotoxic effects, SH-SY5Y viability ([2]; concentrations of therapeutic relevance (2.32 μM)): no neurotoxic effects
- GI50 [14]: 2 µM
- GI50 ([3]; read-out: GI50 values as low as): ≥ 0.02 µM
- GI50 ([3]; read-out: average GI50): 0.85 µM
- toxic effects on normal cells (WI-38) [20]: no toxic effects on normal cells

SMILES: COC(=O)CCCCCCNC(=O)c1csc(Br)n1 [NC-1, Methyl 7-(2-bromothiazole-4-carboxamido)heptanoate]
- effect on neuronal cells (neurotoxicity), SH-SY5Y viability [2]: no effect

- IC50 [4]: 1.19 µM
- IC50 [5]: 1.07 µM
SMILES: C#Cc1nc(/C=C\CCCCCC(=O)NO)cs1 [HY-2, (Z)-8-(2-ethynylthiazol-4-yl)-N-hydroxyoct-7-enamide]
- GI50 ([3]; read-out: average GI50): 2.18 µM

SMILES: C#Cc1nc(/C=C/C(=O)NO)cs1 [HY-5, (E)-3-(2-ethynylthiazol-4-yl)-N-hydroxyacrylamide]
- tubulin hyperacetylation at 5 μM [21]: tubulin hyperacetylation
- H3 hyperacetylation at 5 μM [22]: did not show any H3 hyperacetylation
- GI50 ([3]; read-out: average GI50): 2.47 µM

SMILES: C#Cc1nc(C2=C(C)C(O)CC2)cs1 (centres unmarked) [CETZOLE-1, reference compound]
- IC50 ([18]; normal RPE epithelial cells, FBS media (FIGS. 11A, 11C), read-out: IC50 on RPE (selectivity study)): > 30 µM
- time from initiation of ferroptosis until most/all cells were dead [13]: ≤ 8 h
- time of initiation of ferroptosis after treatment [13]: approximately 12 hours
